Laboratory results published in publication PMC10187093, “Synthesis, in silico modelling, and in vitro biological evaluation of substituted pyrazole derivatives as potential anti-skin cancer, anti-tyrosinase, and antioxidant agents” (Journal of Enzyme Inhibition and Medicinal Chemistry, 2023).

Legend:
[1] = biological target: T1, mushroom tyrosinase (Agaricus bisporus, UniProt C7FF04); assay: In vitro mushroom tyrosinase inhibition assay; assay type: biochemical
T1 construct: purchased Sigma-Aldrich Chemical Company (St. Louis, MO) and MP Biomedicals (Irvine, CA)
T1 sequence (C7FF04 1-392 limits assumed): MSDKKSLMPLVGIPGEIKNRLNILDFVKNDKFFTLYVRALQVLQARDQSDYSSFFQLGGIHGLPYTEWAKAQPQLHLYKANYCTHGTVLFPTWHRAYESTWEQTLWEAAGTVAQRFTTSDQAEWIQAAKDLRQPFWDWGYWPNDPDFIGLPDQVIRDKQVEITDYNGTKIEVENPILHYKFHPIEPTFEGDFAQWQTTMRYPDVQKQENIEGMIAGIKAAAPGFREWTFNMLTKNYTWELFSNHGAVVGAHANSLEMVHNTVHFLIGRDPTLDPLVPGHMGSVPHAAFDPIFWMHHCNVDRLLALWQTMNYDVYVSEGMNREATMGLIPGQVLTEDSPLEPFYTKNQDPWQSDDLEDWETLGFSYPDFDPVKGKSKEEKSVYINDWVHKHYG
Protocol: The anti-tyrosinase potential of all the synthesised derivatives was determined by an enzymatic tyrosinase inhibition assay based on their ability to inhibit the substrate, L-tyrosine, from binding to the tyrosinase enzyme. […] Test samples were dissolved in DMSO at a concentration of 10 mM and then diluted to different concentrations with phosphate buffer (0.1 M, pH 6.8). Each well contained 40 µL of the sample with 80 µL of phosphate buffer solution (0.1 M, pH 6.8), 40 µL of tyrosinase enzyme (100 units/mL), and 40 µL L-tyrosine (2.5 mM). The mixture was incubated for 30 min at room temperature, and absorbance was measured at 490 nm. Each sample was accompanied by a sample blank containing all components except tyrosinase. […] The percentage of tyrosinase inhibition was calculated as follows: ((ΔAcontrol – ΔAsample)/ΔAcontrol) × 100. IC50 values denoted the sample concentration required to inhibit 50% tyrosinase activity (Table S1).

[2] = system: A431; assay: Immunoblotting of apoptosis markers, A431; assay type: cell-based, human; conditions: western blot, 48 h, vs untreated
Protocol: Immunoblotting was performed according to standard procedures of the Bio-Rad electrophoresis system (Bio-Rad, Hercules, CA) as described earlier. Briefly, protein extracts were obtained by lysing cells in RIPA buffer containing protease inhibitors, and were resolved by 4–12% polyacrylamide ready mini-PROTEAN TGX gel electrophoresis with sodium dodecyl sulphate (SDS) running buffer. Gels were electrotransferred to 0.45 μm nitrocellulose membranes (Bio-Rad, Hercules, CA) in Tris-glycine (TG) buffer using a Trans-Blot Turbo Transfer Pack according to manufacturer’s instructions. Membranes were incubated for 1 h in 5–7% non-fat powdered milk dissolved in TBST (Tris-buffered saline containing 0.05% Tween 20) or 5% BSA for phosphorylated proteins, to saturate nonspecific binding sites, followed by an overnight incubation (4 °C) with primary antibodies. Membranes were washed 5× with TBST and treated with suitable HRP-conjugated secondary antibodies (Amersham Life Science Inc., Arlington Height, IL) for another 2 h at room temperature, followed by additional wash steps and chemiluminescence-based detection with the Amersham ECL Prime detection reagent kit and the Bio-Rad Quantity One ChemiDoc™ detection and imaging analysis software systems as described earlier[108]^,[109].

[3] = system: SCC-12; assay: MTT antiproliferative/cytotoxicity assay, SCC-12; assay type: cell-based, human
Protocol: Human-derived GFP-expressing melanoma A375 and epidermoid carcinoma A431 cell lines were purchased from Angio-Proteomie (Boston, MA). Human melanoma carcinoma SK-MEL-28 and human immortalised keratinocytes (HaCaT) cell lines were acquired from American Type Culture Collection (ATCC; Manassas, VA). […] The growth media of incubated cells were changed every 2–3 days until they attained 70–80% confluence, after which they were sub-cultured for experiments and re-passaging. DMSO was used as the vehicle to prepare a 10 mM stock solution of the test compounds.
Stock solutions (10 mM) were prepared by dissolving each compound to be screened in DMSO.

[4] = system: A375; assay: MTT antiproliferative/cytotoxicity assay, A375; assay type: cell-based, human; conditions: Homo sapiens, A-375, 48 h, melanoma, MTT, 48 h; read-out: IC50 A375
Protocol: Human-derived GFP-expressing melanoma A375 and epidermoid carcinoma A431 cell lines were purchased from Angio-Proteomie (Boston, MA). Human melanoma carcinoma SK-MEL-28 and human immortalised keratinocytes (HaCaT) cell lines were acquired from American Type Culture Collection (ATCC; Manassas, VA). Human cutaneous SCC cell line SCC-12[192] was generously provided by Dr. James G. Rheinwald to Dr. Tatiana Efimova. Except SK-MEL-28, which was cultured in an RPMI-1640 medium supplemented with 5% FBS, all other human immortalised cell lines were grown and maintained in DMEM containing varying percentages of FBS; 5% FBS for A431, SCC-12, and HaCaT lines, and 10% FBS for A375. All culture media were routinely supplemented with 1% PEST 100X (100 U/mL penicillin, 100 μg/mL streptomycin), and cells were cultured in incubators maintained at 37 °C under an atmosphere of 95% humidity, 20% O2, and 5% CO2. The growth media of incubated cells were changed every 2–3 days until they attained 70–80% confluence, after which they were sub-cultured for experiments and re-passaging. DMSO was used as the vehicle to prepare a 10 mM stock solution of the test compounds.
Stock solutions (10 mM) were prepared by dissolving each compound to be screened in DMSO. From these stock solutions, escalating concentrations were prepared using the corresponding cell growth media as a diluent, and the cells (65–75% confluent) were treated with (0–40 µM) or without the drug in sext- to octuplicate and incubated for 48 h. All treatment protocols and controls were prepared as previously described.
The potency and cytotoxicity of the test compounds against two cutaneous melanoma (A375 and SK-MEL-28) and two non-melanoma (A431 and SCC-12) SC cell lines in addition to a control immortalised normal human epidermal keratinocytes (HaCaT) cell line were assessed by MTT assay as previously described.

[5] = system: A431; assay: Colony formation assay, A431; assay type: cell-based, human; conditions: 0, ½IC50, IC50, 1½IC50; 14 days; vs untreated control
Protocol: (§1) Cells were then trypsinised, and 1000 viable cells from each treated group were seeded on […] in 10 mL of the medium, and incubated for an additional 14 days before fixation and crystal violet staining, imaging, and colonies assessment as previously described[109]^,[116]. The plates were scanned, and the area of clones was quantified with the free software Image J (Bethesda, MD) (https://imagej.nih.gov/ij/).

[6] = system: SK-MEL-28; assay: Scratch wound healing assay, SK-MEL-28; assay type: cell-based, human; conditions: 0, ½IC50, IC50, 1½IC50; 48 h; vs untreated control
Protocol: The scratch wound healing assay was performed to evaluate compound P25’s ability to limit cell migration and scratch wound closure following our previously described protocol. Briefly, cells were seeded in wells of a 24-well plate and incubated to 100% confluent monolayer, following which a sterile 200 µL Gilson pipette tip was used to scratch a straight line across the centre. […] The wounded and re-epithelialisation areas were imaged at 0 h, 24 h, and 48 h using an inverted phase-contrast Olympus IX51 microscope (Olympus America Inc., Center Valley, PA) attached to an Infinity 2 digital camera. Images were processed with an Infinity analysis software version 6.5.6 (Teledyne Lumenera, Ottawa, Canada) and analysed with Adobe Photoshop. The ImageJ software (NIH, Bethesda, MD) was used to measure the migratory area of each treatment group, with results expressed as remaining percentage of unfilled wound surface at 0 h[108].

[7] = system: SK-MEL-28; assay: Colony formation assay, SK-MEL-28; assay type: cell-based, human; conditions: 0, ½IC50, IC50, 1½IC50; 14 days; vs untreated control
Protocol: as §1

O=C1CC(c2ccccc2)=NN1c1ccc(Br)cc1 [P25]
inhibition at 500 µM ([1]; 500 µM, single-concentration screen, read-out: % Inhibition of tyrosinase): 21.9% | IC50 ([1]; > 500 = not biologically relevant, read-out: IC50 Value, mushroom tyrosinase inhibition (Table S1)): > 500 µM | activated caspase-3, caspase-9 and cleaved PARP levels, A431 ([2]; concentration-dependent): substantially increased levels | anti-apoptotic Bcl-2 protein levels, A431 [2]: corresponding decreases | pro-apoptotic Bax expression, A431 [2]: dose-dependent amplified expression | IC50 ([3]; Homo sapiens, SCC12, 48 h, non-melanoma, MTT, 48 h, read-out: IC50 SCC-12): 12.2 ± 0.6 µM | selectivity index (SI) SCC-12 ([3]; IC50 HaCaT divided by IC50 SCC-12): ~2.5 | IC50 [4]: 14.3 ± 0.9 µM | colony formation, A431 [5]: significant concentration-dependent reductions in the relative percentage of colonies formed | scratch wound closure / migration, SK-MEL-28 [6]: significantly and dose-dependently decreased the scratch wound areas | colony formation, SK-MEL-28 [7]: significant concentration-dependent reductions in the relative percentage of colonies formed
